Test results reported in patent US7322965B2, “Infection-resistant medical devices” (priority 2002, dated 2008).
Converted amounts (≈) assume the structure as drawn. Read-outs that look alike come from different tables or passages of the source. Marks after values point to notes of the source that are not given here.

What was measured:
Type in all cases: cell-based
[1] = system: S. epidermidis UC-20208; test: Determination of minimum inhibitory concentration (microdilution); conditions: Staphylococcus epidermidis, read-out: MIC (minimum inhibitory concentration)
[2] = system: S. epidermidis RP62A; test: as above; conditions: Staphylococcus epidermidis, 18 h, read-out: MIC (minimum inhibitory concentration)
[3] = system: S. hominis SP-2; test: as above; conditions: Staphylococcus hominis, read-out: MIC (minimum inhibitory concentration)
[4] = system: S. aureus UC-20205; test: Microtiter-plate adherence assay on polystyrene; conditions: for Adherence Mean OD550: S. aureus UC-20205, 18 h
Experimental: (§1) Briefly, the inoculum was established by the direct colony suspension method using the Prompt™ Inoculation System (Becton Dickinson, Sparks, Md.). The bacteria suspension, which was equal to the turbidity of a 0.5 McFarland standard, was diluted in TSB to a concentration of 1×10^6 colony forming units per ml (CFU/mL). One hundred microliters of the cell suspension was added to flat-bottom polystyrene wells (Corning Costar, Corning, N.Y.) containing 100 μl of TSB, with and without drug. The final inoculum concentration per well was approximately 5×10^5 CFU/mL. The plates were incubated at 37° C. under static conditions in air. At 18 hours (h) post-infection, the optical density of bacterial growth was measured at a wavelength of 595 nm in a microtiter plate reader (Vmax; Molecular Devices, Sunnyvale, Calif.). […] Adherent “sessile” cells then were fixed with 3.7% (v/v) formaldehyde/2% (w/v) sodium acetate and stained with 0.1% (w/v) crystal violet. Excess stain was rinsed off with deionized water and the plates were air-dried for 4 h. The optical density of bacterial adherence was determined at a wavelength of 550 nm. Preliminary studies were performed to determine the optimal wavelengths for measuring growth turbidity and stained adherent cells (data not shown). To compensate for background absorbance, optical density readings from wells treated with sterile medium, fixative and stain as described above were averaged and then subtracted from all test and control wells. Relative inhibition of adherence or growth was expressed by the following equation: (OD of control well−OD of treated well/OD of control well)×100, where OD is the mean optical density of six replicate wells from two separate experiments (three replicates per experiment). Control was defined as infected, drug-free cultures.
(§2) The primary efficacy variable in this study was the measurement of adherent bacterial cells to polystyrene after 18 h of growth. To determine whether statistically significant differences existed between treatment groups (MIC, ½ MIC, and ¼ MIC) compared with the infected-nontreated controls, the Kruskal-Wallis one-way analysis of variance (ANOVA) was applied for each clinical strain. Statistical significance was defined as p-values ≦0.05. An asterisk (*) was placed by all test values less than or equal to the specified significance level.

[5] = system: S. aureus UC-20206; test: Microtiter-plate adherence assay on polystyrene; conditions: for Adherence Mean OD550: S. aureus UC-20206, 18 h
Experimental: as §1, §2

[6] = system: S. epidermidis UC-20208; test: Microtiter-plate adherence assay on polystyrene; conditions: for Adherence Mean OD550: S. epidermidis UC-20208, 18 h; for inhibition at 0.5 µg/mL / inhibition at 1 µg/mL / inhibition at 2 µg/mL: Staphylococcus epidermidis, UC20208, 18 h, read-out: Adherence % Inhibition
Experimental: as §1, §2

[7] = system: S. hominis SP2; test: Microtiter-plate adherence assay on polystyrene, nonadherent reference strain; conditions: data not shown
Experimental: Briefly, the inoculum was established by the direct colony suspension method using the Prompt™ Inoculation System (Becton Dickinson, Sparks, Md.). The bacteria suspension, which was equal to the turbidity of a 0.5 McFarland standard, was diluted in TSB to a concentration of 1×10^6 colony forming units per ml (CFU/mL). One hundred microliters of the cell suspension was added to flat-bottom polystyrene wells (Corning Costar, Corning, N.Y.) containing 100 μl of TSB, with and without drug. The final inoculum concentration per well was approximately 5×10^5 CFU/mL. The plates were incubated at 37° C. under static conditions in air. At 18 hours (h) post-infection, the optical density of bacterial growth was measured at a wavelength of 595 nm in a microtiter plate reader (Vmax; Molecular Devices, Sunnyvale, Calif.). […] The optical density of bacterial adherence was determined at a wavelength of 550 nm. […] To compensate for background absorbance, optical density readings from wells treated with sterile medium, fixative and stain as described above were averaged and then subtracted from all test and control wells. […]
Reliability of the microtiter-plate adherence assay was assessed with the reference strains S. hominis SP2 (nonadherent) and S. epidermidis RP62A (strongly adherent). The median optical density readings for SP2 and RP62A were 0.059±0.004 and 2.789±0.266, respectively. […]

[8] = system: S. epidermidis isolates (UC-20207, UC-20208, and RP62A); test: Time course adherence assay, summary over three S. epidermidis isolates; conditions: for mean inhibitory effects on staphylococcal adherence: subtherapeutic (one-half MIC)
Experimental: Drug effects on bacterial adherence were measured 18 hours after treatment initiation using a quantitative spectrophotometric assay.
Relative inhibition of adherence was expressed by the following equation: (OD of control well−OD of treated well/OD of control well)×100, where OD is the mean optical density of six replicate wells from two separate experiments (three replicates per experiment). Control was defined as infected, drug-free cultures.
The primary efficacy variable in this study was the measurement of adherent bacteria to polystyrene surfaces after 18 hours to 24 hours of growth. To determine whether statistically significant differences existed between treatments (4×MIC, 2×MIC, MIC, and ½ MIC) compared with the infected-nontreated controls, multiple comparisons according to Dunnett's test (Montgomery, Design and Analysis of Experiments (1991)) were applied for each clinical strain. Differences were considered statistically significant when p<0.05.

[9] = Staphylococcus aureus, UC20205, 18 h, read-out: Adherence % Inhibition
[10] = Staphylococcus aureus, UC20206, 18 h, read-out: Adherence % Inhibition

SMILES | Adherence Mean OD550 ([4]; drug 0.5 μg/ml) | Adherence Mean OD550 ([4]; drug 1.0 μg/ml) | inhibition at 0.5 µg/mL [4, 9] | inhibition at 1 µg/mL [4, 9] | Adherence Mean OD550 ([5]; drug 1.0 μg/ml) | inhibition at 1 µg/mL [5, 10] | Adherence Mean OD550 ([6]; drug 0.5 μg/ml) | Adherence Mean OD550 ([6]; drug 1.0 μg/ml) | Adherence Mean OD550 ([6]; drug 2.0 μg/ml (MIC)) | inhibition at 0.5 µg/mL [6] | inhibition at 1 µg/mL [6] | inhibition at 2 µg/mL [6] | promotion of adherence of the nonadherent strain [7] | other results
CN[C@H](CC(C)C)C(=O)N[C@H]1C(=O)N[C@@H](CC(N)=O)C(=O)N[C@H]2C(=O)N[C@H]3C(=O)N[C@H](C(=O)N[C@H](C(=O)O)c4cc(O)cc(O)c4-c4cc3ccc4O)[C@H](O)c3ccc(c(Cl)c3)Oc3cc2cc(c3O[C@@H]2O[C@H](CO)[C@@H](O)[C@H](O)[C@H]2O[C@H]2C[C@](C)(N)[C@H](O)[C@H](C)O2)Oc2ccc(cc2Cl)[C@H]1O [Vancomycin] | 0.012 ± 0.013* | 0.000 ± 0.001* | 98% | 100% | 0.000 ± 0.003* | 9.99% | 2.165 ± 0.150 | 2.716 ± 0.400 | 0.000 ± 0.001* | 0% | 0% | 100% | Neither linezolid nor vancomycin promoted adherence | MIC ([1]; UC20208, 18 h): 2 µg/mL (≈ 1.38 µM); MIC ([2]; RP62A): 2 µg/mL (≈ 1.38 µM); MIC ([3]; SP2, 18 h): 1 µg/mL (≈ 0.69 µM); Adherence Mean OD550 ([4]; drug 0.25 μg/ml): 0.730 ± 0.202; inhibition at 0.25 µg/mL [4, 9]: 0%; Adherence Mean OD550 ([5]; drug 0.25 μg/ml): 0.192 ± 0.020; Adherence Mean OD550 ([5]; drug 0.5 μg/ml): 0.267 ± 0.044; inhibition at 0.25 µg/mL [5, 10]: 12.5%; inhibition at 0.5 µg/mL [5, 10]: 0%; activity against cell adhesion ([8]; subtherapeutic concentrations (one-half MIC)): minimal or no activity against cell adhesion; anti-adhesion activity ([8]; therapeutic levels, administered 2 hours post-infection, compared with linezolid): equally effective; anti-adhesion activity ([8]; treatments delayed by 4 to 6 hours): only the highest concentrations (>MIC) demonstrated anti-adhesion activity
CC(=O)NC[C@H]1CN(c2ccc(N3CCOCC3)c(F)c2)C(=O)O1 [Linezolid, (S)-N-[[3-[3-fluoro-4-(4-morpholinyl)phenyl]-2-oxo-5-oxazolidinyl]methyl]acetamide] | 0.013 ± 0.007* | 0.005 ± 0.007* | 97.6% | 99% | 0.001 ± 0.002* | 99.4% | 1.342 ± 0.791 | 0.001 ± 0.002* | 0.000 ± 0.001* | 26.7% | 99.9% | 100% | Neither linezolid nor vancomycin promoted adherence | MIC ([1]; UC20208, S. epidermidis UC-20208, 18 h): 2 µg/mL (≈ 5.93 µM); MIC ([2]; S. epidermidis RP62A): 2 µg/mL (≈ 5.93 µM); MIC ([3]; SP2, S. hominis SP-2, 18 h): 2 µg/mL (≈ 5.93 µM); Adherence Mean OD550 ([4]; drug 2.0 μg/ml): 0.001 ± 0.001*; inhibition at 2 µg/mL [4, 9]: 99.7%; Adherence Mean OD550 ([5]; drug 2.0 μg/ml): 0.002 ± 0.002*; Adherence Mean OD550 ([5]; drug 4.0 μg/ml): 0.003 ± 0.003*; inhibition at 2 µg/mL [5, 10]: 99.3%; inhibition at 4 µg/mL [5, 10]: 98.5%; inhibitory effects on adherence ([8]; 4×MIC, 6-hour delay, mean of three strains): 87.5%±11.7; mean inhibitory effects on staphylococcal adherence ([8]; 2 h delayed treatment, mean of three strains): 99.1%±1.4; mean inhibitory effects on staphylococcal adherence ([8]; 4 h delayed treatment, mean of three strains): 63.5%±39.2; anti-adhesion activity ([8]; therapeutic levels (≧MIC), 2- and 4-hour deferred treatments): potent anti-adhesion activity
